We go through 16 compounds from PubChem BioAssay (NCI).

What all share (assay): DTP human tumour cell line panel, 48 h
Test [1] deals with IGROV1 ovarian.
Test [2] has as its system CAKI-1 renal.
The subject of test [3] is M14 melanoma.
The test system of test [4] is NCI-H522 lung.
In test [5] the test system is OVCAR-5 ovarian.
In test [6] the test system is EKVX NSCLC.
The subject of test [7] is HT29 colon.
The test system of test [8] is K-562 leukemia.
Test [9] concerns UO-31 renal.
Test [10] concerns SNB-75 CNS.
In test [11] the test system is SN12C renal.

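Briefly, cells in 96-well plates were exposed to five compound concentrations for 48 h, and endpoints were estimated by linear interpolation. The concentration for 50% growth inhibition is given as GI50. TGI marks complete inhibition of growth.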

For `O=C(N/N=C/c1cc(Br)cc(Br)c1[O-])c1ccccc1O.O=C(N/N=C/c1cc(Br)cc(Br)c1[O-])c1ccccc1O.[Cl-].[Fe+3]`, the TGI (as a rule, the concentration at which net growth stops) in [1] was 30.6 µM; in test [2], 18.2 µM; in test [3], 9.96 µM; in test [4], 4.56 µM; in [5] it was 7.61 µM; in test [6] it was 27.8 µM. Further, the TGI in test [7] came out at 13.2 µM; in test [8] it was 5.63 µM; in test [9], 20.7 µM. Further, the GI50 (as a rule, the concentration giving 50% growth inhibition) in test [8] was 2590 nM.
For `CCOC(=O)C1=C(C)N2CCCOC2(C)C(C(=O)OC)C1c1cccc([N+](=O)[O-])c1` (stereo not given), the TGI in test [1], in test [2], in test [3], in [6], in test [7] and in [8] was more than 100 µM throughout. Further, the total growth inhibition concentration (TGI) in test [10] is 75.8 µM; in test [9], more than 100 µM.
Take `C#CCCCCC#CC1CCCC1C1=CC(=O)c2ccccc21` (stereo not given): the TGI in test [1] is 19.4 µM; in test [3] it was 17 µM; in test [4], 22 µM; in test [5], 23.7 µM; in [6] it was 28 µM; in test [7], 15.9 µM. Besides, the TGI in test [8] is 8.14 µM; in [10] it was 17.7 µM; in test [11], 19.4 µM; in test [9], 21.3 µM.
In the case of `CC(=O)O[C@H]1CC[C@]2(C)[C@H]3C(=O)C=C4[C@@H]5C[C@](C)(C(=O)N6CCCNCC6)CC[C@]5(C)CC[C@@]4(C)[C@]3(C)CC[C@H]2C1(C)C`, the GI50 in test [2] is 1.43 µM; in test [4], 1.68 µM; in test [5] it was 1.6 µM; in test [6], 1.67 µM; in test [7], 1.5 µM; in test [8], 1270 nM. For the same compound, the GI50 in test [10] is 1.34 µM; in test [9], 1400 nM. In addition, the TGI in test [2] is 2.79 µM; in test [4], 3.42 µM; in test [5] it was 2.96 µM; in [6], 3.15 µM; in test [7], 3.17 µM; in test [8], 4.27 µM. Further, the TGI in test [10] came to 2.64 µM; in [9], 2.82 µM.
`CCCNCC(O)/C=C/[Si](C)(C)C` (stereo not given) (tested in a mixture with another compound): the TGI in test [1], in test [3], in [4], in test [5], in [6] and in [7] was more than 100 µM each time. The TGI in test [8], in test [10], in test [11] and in test [9] was more than 100 µM each time.
Turning to `CC1(C)[C@@H]2C[C@H]1C(Cc1ccccc1C[C@H]1c3cc(-c4ccccn4)ncc3[C@H]3C[C@@H]1C3(C)C)c1cc(-c3ccccn3)ncc12` (stereo not given in full), the TGI was 26.2 µM in test [1]; more than 40.8 µM in test [2]; more than 22 µM in test [4]; more than 100 µM in test [5]; more than 100 µM in test [6]; more than 100 µM in [7]. Besides, the TGI in test [8] is more than 100 µM; in test [10], more than 100 µM; in test [11], more than 100 µM; in test [9], 2.41 µM.
For the compound `N=C(N)SC1c2ccccc2-c2cc([N+](=O)[O-])ccc21` (stereo not given), the TGI came out at 18 µM in [1]; 19.3 µM in test [2]; 17.7 µM in test [3]; 6.47 µM in [4]; 26.7 µM in [5]; 29 µM in [6]. Further, the TGI came to 13.5 µM in [7]; 22 µM in test [8]; 5.7 µM in test [10]; 26.6 µM in test [11]; 20.3 µM in test [9].
For `CN(C)CCNc1ccc2nnn3c4ccc(Cl)cc4c(=O)c1c23`, the TGI turned out to be 38.7 µM in test [1]; 11 µM in test [2]; 16.7 µM in test [3]; 17.5 µM in [4]; 13.3 µM in [5]; 22.2 µM in test [6]. The TGI in test [7] was 15.9 µM; in [8], 22.7 µM; in test [10] it was 9.78 µM; in test [11], 21.8 µM; in test [9], 9.41 µM.
In the case of `CN[C@@H]1[C@H](O)[C@H](NC)[C@H]2O[C@@]3(O)C(=O)C[C@@H](C)O[C@H]3O[C@@H]2[C@H]1O`, the TGI in [1], in test [2], in [3], in test [4], in test [5] and in test [6] was more than 100 µM throughout. Also, the TGI in test [7], in test [8], in [10], in test [11] and in test [9] was more than 100 µM in each case.
Take `C[n+]1ccccc1/C=C/c1ccc2c(c1)OCO2`: the TGI in test [1], in [2], in test [3], in test [4], in test [5] and in test [6] was more than 10 µM each time. The TGI in test [7], in test [8] and in test [11] was more than 10 µM each time.
`O=[N+]([O-])/C=C/c1cccc(F)c1`: the TGI in [1] was more than 100 µM; in test [2], 29.9 µM; in [3], 10.7 µM; in [4], 26.9 µM; in [6] it was 7.45 µM; in test [7], 10.3 µM. The TGI was 28.1 µM in [10], 38.9 µM in test [11] and 5.87 µM in [9].
On to `CCCCCCc1ccc(O)cc1O`, for which the TGI in test [1] was more than 93.8 µM; in test [4], more than 100 µM; in test [5], more than 100 µM; in test [6], more than 100 µM; in test [7] it was more than 100 µM; in test [8], more than 100 µM. The TGI in test [10] was more than 100 µM; in [11] it was more than 100 µM; in test [9], 86.7 µM.
In the case of `COc1cc2c(cc1OC)C(C1(O)CCCCC1)NCC2` (stereo not given), the TGI in test [1], in test [3], in test [5], in test [6], in test [7] and in [8] was more than 100 µM in each case. The TGI in [10], in [11] and in [9] was more than 100 µM throughout.
With `COc1cc2c(cc1O)CCN[C@@]21CS[C@H]2c3c(OC(C)=O)c(C)c4c(c3C(COC1=O)N1C2C2c3c(cc(C)c(OC)c3O)CC([C@@H]1O)N2C)OCO4` (stereo not given in full), the GI50 in test [1] is 0.000783 µM; in [2] it was 0.00269 µM; in test [4], 0.000953 µM; in [8] it was less than 0.001 nM; in test [9] it was less than 0.001 nM. The TGI in test [2] is 0.0622 µM; in [3], 0.00473 µM; in test [4], 0.00273 µM; in test [8], 1.54e-05 µM; in test [11] it was 4.41e-06 µM; in [9] it was less than 1e-06 µM.
Consider `NC(Cc1ccc2oc3cc(=O)c4ccccc4c-3nc2c1)C(=O)O` (stereo not given), for which the TGI was more than 100 µM in [1]; more than 97.7 µM in test [2]; 30.1 µM in test [3]; 77.7 µM in test [4]; more than 87.6 µM in [5]; more than 100 µM in [6]. Also, the TGI is 72.6 µM in test [7]; 77.1 µM in test [8]; 29.7 µM in test [10]; 39.5 µM in test [11]; more than 100 µM in test [9].
Turning to `Cc1c(Cl)c(S(N)(=O)=O)cc(S(N)(=O)=O)c1NC(=O)c1ccc(Cl)cc1`, the TGI in test [1], in test [2], in test [3], in test [4], in test [5] and in test [7] was more than 100 µM each time. Also, the TGI in test [8], in test [10], in test [11] and in test [9] was more than 100 µM throughout.
